{"source": "patent US10414811B2", "about": "“Protease-resistant lipidated GLP-1 analogs” (MEDIMMUNE LIMITED, priority 2015, dated 2019)", "key": {"trypsin": {"target": "T1, trypsin (Sus scrofa, UniProt P00761)", "T1 construct": "purchased Sigma T7409", "T1 sequence (P00761 9-231)": "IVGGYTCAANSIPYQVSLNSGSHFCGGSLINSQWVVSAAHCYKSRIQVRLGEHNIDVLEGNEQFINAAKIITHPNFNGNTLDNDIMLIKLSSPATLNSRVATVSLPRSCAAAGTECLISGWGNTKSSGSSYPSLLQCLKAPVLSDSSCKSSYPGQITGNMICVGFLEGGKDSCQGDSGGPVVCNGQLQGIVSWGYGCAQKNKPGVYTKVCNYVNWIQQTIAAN", "assay": "Proteolytic resistance to trypsin (% remaining intact peptide, RP-HPLC AUC)", "assay_type": "in vitro ADME", "settings": "pig, porcine pancreatic trypsin, 37° C., pH 7.8, read-out: Percentage remaining intact peptide (AUC by RP-HPLC) upon incubation with trypsin", "from_the_text": "Ratio enzyme (units):peptide (μmoles)˜1:11. […] Ratio enzyme (units):peptide (μmoles)˜1.2:1."}, "[1]": {"assay": "Proteolytic resistance to fasted-state simulated intestinal fluid (FASSIF/Pancreatin)", "assay_type": "in vitro ADME", "settings": "37° C., read-out: Percentage remaining intact peptide (AUC by RP-HPLC) upon incubation with fasted-state simulated intestinal fluid (FASSIF/P)", "protocol": "A fresh suspension of FASSIF/P (Fasted-State Simulated Intestinal Fluid+USP Pancreatin®) was prepared according to that described by Galia, Nicolaides, Hörter, Löbenberg, Reppas and Dressman: Pharm. Res. 15 (1998) 698-705. The resulting preparation is proteolytically equivalent to ˜375 units/mL (375 kU/L) and was used immediately without storage. Peptides for evaluation (1.0 mg, ˜250 nmoles) were initially dissolved in pre-warmed FASSIF without Pancreatin® (200 μL) to which was added pre-warmed fresh FASSIF/Pancreatin® (100 μL) to initiate potential digestion. Following momentary vortexing of the Eppendorf reaction tube the mixture was incubated at 37° C. in a thermostatic waterbath for the duration of the experiment. 25 μL aliquots of the co-incubated peptide-enzyme mixture were periodically withdrawn (t=0, 5 m, 10 m, 15 m, 30 m, 1 h, 2 h) and quenched immediately by addition to a solution of 10% TFA in 1:1 water/acetonitrile (75 μL) to arrest proteolytic activity."}, "GLP-1R (INS1e assay)": {"target": "T2, GLP-1R (INS1e assay) (Rattus norvegicus, UniProt P32301)", "T2 construct": "endogenous in cells; host or cells: INS-1E cells", "T2 sequence (P32301 22-463)": "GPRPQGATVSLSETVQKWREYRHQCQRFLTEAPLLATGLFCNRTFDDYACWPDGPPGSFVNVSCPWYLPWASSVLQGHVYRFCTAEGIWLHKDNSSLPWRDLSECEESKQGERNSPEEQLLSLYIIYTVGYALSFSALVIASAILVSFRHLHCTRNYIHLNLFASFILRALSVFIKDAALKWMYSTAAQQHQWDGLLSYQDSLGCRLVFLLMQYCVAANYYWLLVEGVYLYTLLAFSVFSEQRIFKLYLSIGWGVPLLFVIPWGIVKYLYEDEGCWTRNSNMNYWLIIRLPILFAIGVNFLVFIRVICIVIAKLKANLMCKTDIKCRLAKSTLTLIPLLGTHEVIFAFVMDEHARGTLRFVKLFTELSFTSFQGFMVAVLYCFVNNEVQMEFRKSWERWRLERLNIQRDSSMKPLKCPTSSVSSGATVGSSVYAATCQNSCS", "assay": "INS1e assay, cAMP activity at GLP-1R", "assay_type": "cell-based", "settings": "bis-lipidated peptides", "summary_of_the_method": "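cAMP was quantified by two-step HTRF, using anti-cAMP cryptate donor and cAMP-d2 acceptor, each diluted 1/20 in conjugate and lysis buffer. EC50 values of the synthetic peptides were derived from the cAMP readout.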"}, "Neprilysin": {"target": "T3, Neprilysin (Homo sapiens, UniProt P08473)", "T3 construct": "purchased R&D Systems 1182-ZNC-010", "T3 sequence (P08473 whole entry)": "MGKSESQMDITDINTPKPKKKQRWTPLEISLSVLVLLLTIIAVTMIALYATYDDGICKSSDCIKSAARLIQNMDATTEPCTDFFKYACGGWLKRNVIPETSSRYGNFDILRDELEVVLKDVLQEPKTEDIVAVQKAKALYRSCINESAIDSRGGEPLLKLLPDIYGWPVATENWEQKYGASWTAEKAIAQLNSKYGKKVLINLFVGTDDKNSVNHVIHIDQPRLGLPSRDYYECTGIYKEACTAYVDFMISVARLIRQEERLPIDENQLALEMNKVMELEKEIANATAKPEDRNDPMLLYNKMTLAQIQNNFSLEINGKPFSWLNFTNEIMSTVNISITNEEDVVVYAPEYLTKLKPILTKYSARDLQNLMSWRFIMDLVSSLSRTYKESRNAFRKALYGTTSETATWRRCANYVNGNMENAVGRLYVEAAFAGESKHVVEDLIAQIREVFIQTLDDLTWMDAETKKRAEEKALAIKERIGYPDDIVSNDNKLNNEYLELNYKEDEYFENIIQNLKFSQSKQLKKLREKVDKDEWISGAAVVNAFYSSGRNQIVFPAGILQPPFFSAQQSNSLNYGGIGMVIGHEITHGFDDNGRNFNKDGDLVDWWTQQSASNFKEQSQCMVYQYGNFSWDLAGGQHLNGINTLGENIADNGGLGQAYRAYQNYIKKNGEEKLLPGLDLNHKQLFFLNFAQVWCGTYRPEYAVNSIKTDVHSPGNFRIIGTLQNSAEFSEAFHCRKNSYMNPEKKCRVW", "assay": "Proteolytic resistance to neprilysin (% remaining peptide, RP-HPLC AUC)", "assay_type": "in vitro ADME", "settings": "37° C., pH 8.3", "method": "Ratio enzyme (units):peptide (μmoles)˜1:33. […] Ratio enzyme (units):peptide (μmoles)˜1:2.5.\n15 μL aliquots (˜15 μg initial peptide) of the peptide-enzyme mixture were periodically withdrawn (t=0, 30 mins, 1 hr, 2 hr, 4 hr, 8 hr, 24 hr) and quenched immediately by addition to an equal volume (15 μL) of 5% TFA (v/v) in 1:1 water/acetonitrile to arrest proteolytic activity. 20 μL aliquots (˜10 μg initial peptide) were analyzed by LC/MS and/or analytical RP-HPLC as follows: LC/MS method: Agilent Polaris C8-A column (4.6×100 mm, 3 micron) eluted with a linear binary gradient of 10-90% MeCN (0.1% TFA v/v) in water (0.1% TFA v/v) over 30 mins at 1.5 mL min-1 at ambient temperature with detection by both UV absorption at 210 nm and ionization using a Waters 3100 mass detector (ESI+ mode). Peptide fragments deriving from enzymatic hydrolysis were identified by molecular weight, allowing location of the site of cleavage. Analytical RP-HPLC method: Agilent Polaris C8-A column (4.6×100 mm, 3 micron) eluted with a linear binary gradient of 10-90% MeCN (0.1% TFA v/v) in water (0.1% TFA v/v) over either 10 or 15 mins at 1.5 mL min^−1 at 40° C. with detection by UV absorption at 210 nm. Manual integration (AUC) allowed estimation of remaining intact peptide over the time course of the experiment.\n25 μL aliquots (˜6 μg initial peptide) were analyzed by LC/MS and/or analytical RP-HPLC as follows: LC/MS method: Agilent Polaris C8-A column (4.6×100 mm, 3 micron) eluted with a linear binary gradient of 10-90% MeCN (0.1% TFA v/v) in water (0.1% TFA v/v) over 30 mins at 1.5 mL min^−1 at ambient temperature with detection by both UV absorption at 210 nm and ionization using a Waters 3100 mass detector (ESP mode). Peptide fragments deriving from enzymatic hydrolysis were identified by molecular weight, allowing location of the site of cleavage. Analytical RP-HPLC method: Agilent Polaris C8-A column (4.6×100 mm, 3 micron) eluted with a linear binary gradient of 10-90% MeCN (0.1% TFA v/v) in water (0.1% TFA v/v) over either 10 or 15 mins at 1.5 mL min^−1 at 40° C. with detection by UV absorption at 210 nm. Manual integration (AUC) allowed estimation of remaining intact peptide over the time course of the experiment."}, "[2]": {"target": "T4, human GLP-1 receptor (GLP-1R) (Homo sapiens, UniProt P43220)", "T4 construct": "expressed in transfected cells", "T4 sequence (P43220 24-463)": "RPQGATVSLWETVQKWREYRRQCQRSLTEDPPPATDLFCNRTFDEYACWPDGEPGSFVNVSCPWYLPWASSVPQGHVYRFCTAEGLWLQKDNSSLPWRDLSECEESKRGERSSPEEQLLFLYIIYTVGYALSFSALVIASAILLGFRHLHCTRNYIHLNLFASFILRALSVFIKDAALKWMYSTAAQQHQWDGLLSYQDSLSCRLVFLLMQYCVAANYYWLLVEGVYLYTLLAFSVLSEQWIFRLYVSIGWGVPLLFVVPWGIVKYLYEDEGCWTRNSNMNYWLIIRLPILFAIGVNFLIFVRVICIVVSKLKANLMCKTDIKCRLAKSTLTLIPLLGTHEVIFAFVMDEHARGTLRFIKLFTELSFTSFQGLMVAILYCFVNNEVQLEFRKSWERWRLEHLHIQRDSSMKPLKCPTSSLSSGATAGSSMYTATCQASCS", "assay": "cAMP assay, human GLP-1R cells", "assay_type": "cell-based", "settings": "bis-lipidated peptides", "summary_of_the_method": "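Peptide-stimulated cAMP measured by two-step HTRF after a 30 min room-temperature incubation with receptor-expressing cells (hGLP-1R, hGIPR at 1×10^5 cells/ml; hGCGR at 2×10^5 cells/ml). Duplicate dilutions; EC50 from 4-parameter logistic fit of % Delta F.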"}, "pepsin": {"target": "T5, pepsin (Sus scrofa, UniProt P00791)", "T5 construct": "purchased Sigma P7012", "T5 sequence (P00791 60-385)": "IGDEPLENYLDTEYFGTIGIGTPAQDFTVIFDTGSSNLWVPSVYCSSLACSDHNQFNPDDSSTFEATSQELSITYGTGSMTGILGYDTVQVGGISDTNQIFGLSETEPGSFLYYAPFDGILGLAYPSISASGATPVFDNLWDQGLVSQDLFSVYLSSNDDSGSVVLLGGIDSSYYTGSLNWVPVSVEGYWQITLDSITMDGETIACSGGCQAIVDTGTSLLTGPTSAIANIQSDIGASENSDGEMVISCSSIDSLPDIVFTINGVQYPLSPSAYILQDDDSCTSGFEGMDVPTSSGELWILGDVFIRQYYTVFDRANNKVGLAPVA", "assay": "Proteolytic resistance to pepsin (% remaining intact peptide, RP-HPLC AUC)", "assay_type": "in vitro ADME", "settings": "pig, porcine pepsin, 37° C., pH 2.0, read-out: Percentage remaining intact peptide (AUC by RP-HPLC) upon incubation with pepsin", "protocol": "Lyophilized porcine […] pepsin (Sigma: P7012) was reconstituted to afford a solution of 200 μg/mL (˜500 units/mL) in assay buffer (0.1 M HCl, pH 2.0) to give the enzyme stock solution. […] Ratio enzyme (units):peptide (μmoles)˜1:6. […] Ratio enzyme (units):peptide (μmoles)˜2:1.\nLyophilized porcine […] pepsin (Sigma: P7012) was reconstituted to 200 μg/mL (˜500 units/mL) in assay buffer (1.0 M HCl, pH 2.0) to give the enzyme stock solution."}}, "note": "Like-named read-outs stand apart in the source and are kept apart here. Numbered stars: 1 amine (or outer) side, 2 acyl side, 3 side chain; on linkers, the order of the positions; unused ones are H or OH. Square brackets hold non-standard residues; d marks the D form. Side chains are listed from the residue outwards. Peptide text beside a SMILES is read from it. * marks the point of attachment. γGlu = O=C(O)[C@H](CCC(=O)[*:2])N[*:1]; αMeF = C[C@](N)(Cc1ccccc1)C(=O)O; αMeK = C[C@](N)(CCCCN)C(=O)O; Lauroyl = CCCCCCCCCCCC(=O)*; αMeS = C[C@](N)(CO)C(=O)O; AEEA = NCCOCCOCC(=O)O; Aib = CC(C)(N)C(=O)O"}
{"smiles": "CCCCCCCCCCCC(=O)N[C@@H](CCC(=O)NCCOCCOCC(=O)NCCOCCOCC(=O)NCCCC[C@H](NC(=O)[C@H](C)NC(=O)[C@@H](NC(=O)[C@H](Cc1ccccc1)NC(=O)[C@H](CCC(=O)O)NC(=O)[C@](C)(CCCCN)NC(=O)[C@H](C)NC(=O)[C@H](C)NC(=O)[C@H](CCC(=O)O)NC(=O)CNC(=O)[C@H](CCC(=O)O)NC(=O)[C@H](CC(C)C)NC(=O)[C@H](CCCCNC(=O)COCCOCCNC(=O)COCCOCCNC(=O)CC[C@H](NC(=O)CCCCCCCCCCC)C(=O)O)NC(=O)[C@H](CO)NC(=O)[C@](C)(CO)NC(=O)[C@@H](NC(=O)[C@H](CC(=O)O)NC(=O)[C@H](CO)NC(=O)[C@@H](NC(=O)[C@](C)(Cc1ccccc1)NC(=O)[C@H](CO)NC(=O)CNC(=O)[C@H](CCC(=O)O)NC(=O)C(C)(C)NC(=O)[C@@H](N)Cc1c[nH]cn1)[C@@H](C)O)C(C)C)[C@@H](C)CC)C(=O)N[C@H](C(=O)N[C@H](C(=O)N[C@@H](CCC(=O)O)C(=O)NCC(=O)NCC(N)=O)C(C)C)C(C)C)C(=O)O", "note": "[compound 263] (H-H[Aib]EGS[αMeF]TSDV[αMeS]SK([AEEA-AEEA-γGlu-Lauroyl])LEGEAA[αMeK]EFIAK([AEEA-AEEA-γGlu-Lauroyl])VVEGG-NH2)", "values": [{"measurement": "remaining at 0.5 h", "setting": "trypsin; t = 30 min", "value": 98.9, "unit": "%"}, {"measurement": "remaining at 1 h", "setting": "trypsin; t = 1 hr", "value": 97.2, "unit": "%"}, {"measurement": "remaining at 2 h", "setting": "trypsin; t = 2 hr", "value": 94.8, "unit": "%"}, {"measurement": "remaining at 4 h", "setting": "trypsin; t = 4 hr", "value": 89.8, "unit": "%"}, {"measurement": "remaining at 8 h", "setting": "trypsin; t = 8 hr", "value": 85, "unit": "%"}, {"measurement": "remaining at 5 min, […]", "setting": "[1]; t = 5 m", "value": 93.1, "unit": "%"}, {"measurement": "remaining at 1 h, […]", "setting": "[1]; t = 1 h", "value": 35.1, "unit": "%"}, {"measurement": "EC50", "setting": "GLP-1R (INS1e assay); mean of n1 and n2, read-out: INS1e assay EC50 Mean pM GLP-1R", "value": 132, "unit": "pM"}, {"measurement": "EC50", "setting": "GLP-1R (INS1e assay); replicate n1, read-out: INS1e assay EC50 GLP-1R n1", "value": 120, "unit": "pM"}, {"measurement": "EC50", "setting": "GLP-1R (INS1e assay); replicate n2, read-out: INS1e assay EC50 GLP-1R n2", "value": 144, "unit": "pM"}, {"measurement": "remaining at 0.5 h", "setting": "Neprilysin; recombinant neprilysin, t = 30 min", "value": 98.3, "unit": "%"}, {"measurement": "remaining at 1 h", "setting": "Neprilysin; recombinant neprilysin, t = 1 hr", "value": 99.5, "unit": "%"}, {"measurement": "remaining at 2 h", "setting": "Neprilysin; recombinant neprilysin, t = 2 hr", "value": 97.7, "unit": "%"}, {"measurement": "remaining at 4 h", "setting": "Neprilysin; recombinant neprilysin, t = 4 hr", "value": 92.3, "unit": "%"}, {"measurement": "remaining at 8 h", "setting": "Neprilysin; recombinant neprilysin, t = 8 hr", "value": 91.2, "unit": "%"}, {"measurement": "remaining at 24 h", "setting": "Neprilysin; recombinant neprilysin, t = 24 hr, read-out: Percentage remaining peptide (AUC at specified time-point by RP-HPLC) upon incubation with neprilysin, t = 24 hr", "value": 91.9, "unit": "%"}, {"measurement": "Percentage remaining peptide (AUC at specified time-point by RP-HPLC) upon incubation with neprilysin, t = 0", "setting": "Neprilysin; t = 0", "value": 100, "unit": "%"}, {"measurement": "EC50", "setting": "[2]; mean of n1 and n2, read-out: Primary assay EC50 Mean pM GLP-1R", "value": 1.2, "unit": "pM"}, {"measurement": "EC50", "setting": "[2]; replicate n2, read-out: Primary assay EC50 GLP-1R n2", "value": 1.45, "unit": "pM"}, {"measurement": "remaining at 0.5 h", "setting": "pepsin; t = 30 min", "value": 57.7, "unit": "%"}, {"measurement": "remaining at 1 h", "setting": "pepsin; t = 1 hr", "value": 36, "unit": "%"}, {"measurement": "remaining at 2 h", "setting": "pepsin; t = 2 hr", "value": 14.3, "unit": "%"}, {"measurement": "remaining at 4 h", "setting": "pepsin; t = 4 hr", "value": 5.1, "unit": "%"}, {"measurement": "remaining at 8 h", "setting": "pepsin; t = 8 hr", "value": 1.1, "unit": "%"}, {"measurement": "remaining at 24 h", "setting": "pepsin; t = 24 hr", "value": 0, "unit": "%"}]}
